Test results taken from US20230293433A1, “METHOD OF MANUFACTURING MICELLES FOR DRUG DELIVERY” (Wisconsin Alumni Research Foundation, priority 2022, published 2023).
Each block holds one molecule with its values, some of them ahead of it.

Experiments:
Format in all cases: physicochemical
[1] = Encapsulation efficiency and drug loading of PEG-assist micelles (centrifugation, HPLC)
Procedure: In order to prepare drug-loaded micelles, PTX (at a weight ratio of 1:2 w/w PTX: PEG4kDa-b-PLA2.2kDa corresponding to target loading of ca. 33 wt. %) was added to the mixture prior to heating to 60° C. The amount of water when PTX was present in the formulation was adjusted to aim for 4 mg/mL PTX level. […] The hydration process was performed under different conditions including rapid hydration (vortexing after addition of water) or slow hydration (a two-step hydration protocol consisting of addition of half of the target water volume followed by mixing and then addition of the rest followed by gentle mixing at 50 rpm in a rotary mixer). Micelles with the target loadings of 10 and 20 wt. % as well as 1 mg/mL PTX target level were prepared after optimizing the process parameters and used for other experiments such as stability measurement, scalability study and freeze-drying. To prepare formulations with 1 mg/mL PTX target level at 10 or 20 wt. % target loading, 1 mg PTX together with 9 or 4 mg copolymer were mixed with 170 or 75 mg PEG, respectively, and heated to 60° C. to obtain a transparent mixture. The added amounts of PEG keep the block copolymer concentration at 5.0 wt. % in the mixture. The mixture was cooled down to 40° C., incubated for 2 h followed by hydration with 1 mL DI water at 40° C. to obtain drug-loaded polymeric micelles. The samples were cooled down to room temperature and analyzed.
To measure the encapsulation efficiency, unencapsulated drug was first removed by centrifugation at 10000 g for 10 min. Following centrifugation, 50 μl of supernatant for each sample was mixed with 50 μl DI water and 400 μl acetonitrile (ACN). High performance liquid chromatography (HPLC, Prominence, Shimadzu, Japan) equipped with an autosampler, a C18 column and a UV-Vis detector was employed to measure PTX content. PTX was detected at 228 nm absorption wavelength by injecting 10 μl sample through an 80/20 ACN/water v/v mixture as the mobile phase under the flow rate of 0.5 mL/min. […]

[2] = Particle size, PdI and zeta potential by dynamic light scattering; details: PROTAC-loaded PEG-b-PLA micelles, PEG1000, hydrated at 40° C.
Procedure: Dynamic light scattering (DLS, nano ZS, Malvern) was used to measure particle size distribution and to investigate micelle formation. For particle size analysis, the measurements were carried out at 25° C. using water as dispersant.

[3] = Solubility of PTX in PEG-water mixtures; details: all examined PEG molecular weights
From the text: To begin with, we measured the solubility of PTX in mixtures of water and PEG of different molecular weights as a function of water content. Hydrophobic drugs such as PTX are highly soluble in liquid PEG. Addition of water, however, if surpasses a critical point, will result in precipitation of PTX (see FIG. 4). This critical point is positioned near 50.0 wt. % water content (or water:PEG 1:1 w/w ratio) for all the examined molecular weights. In other words, presence of equal or larger amount of water in a PEG-water mixture prohibits PTX solubility. Considering the PEG-assist preparation procedure, the water content always well exceeds the critical value in the final product (ca. 85.0, 92.0 or 96.0 wt. % water content at 1 mg/mL PTX level for 10, 20 or 33 wt. % target loading, respectively). Therefore, PEG-water mixture cannot play any solubilization role for PTX in the proposed system, and the drug is expected to mainly reside in the PEG-b-PLA micelles' core.

[4] = Stability of micelle formulations at room temperature; details: 20 wt. % target loading, 1 mg/mL, PEG1000, 40° C.
Procedure: We considered stability, applicability to other drugs and copolymers, scalability and long-term preservation as four more criteria to evaluate the PEG-assist method. The stability of PTX-loaded PEG-b-PLA micelles prepared at 20 wt. % target loading with 1 mg/mL target PTX level is shown in FIG. 9A. All the samples were prepared at saturation temperature i.e. 40° C. […] In other words, PTX remains soluble after 8 hours incubation at room temperature without any significant loss for any of the PEG molecular weights (p>0.05). […] We observed that all the samples were completely transparent without any visual precipitation within the 8 h time frame. […] The inherent incompatibility of PTX with the micelle core can be alleviated using acyl and ester prodrug strategies for physical loading purposes [Tam, Y. T., et al., “Poly (ethylene glycol)-block-poly (d, 1-lactic acid) micelles containing oligo (lactic acid) 8-paclitaxel prodrug: In Vivo conversion and antitumor efficacy” J. Control. Rel., 2019. 298:186-193; Tam, Y. T., J. Gao, and G. S. Kwon, “Oligo (lactic acid) n-paclitaxel prodrugs for poly (ethylene glycol)-block-poly (lactic acid) micelles: loading, release, and backbiting conversion for anticancer activity” J. Am. […]
The samples in Example 16, were monitored for stability after reconstitution. The particle size and PdI was measured at different time points (1, 2 and 7 days).

[5] = PROTAC-loaded PEG-b-PLA micelles, PEG1000, hydrated at 40° C.

SMILES: COc1cc2ncnc(Nc3ccc(F)c(Cl)c3)c2cc1OCCCCCOCCOCCC(=O)N[C@H](C(=O)N1C[C@H](O)C[C@H]1C(=O)NCc1ccc(-c2scnc2C)cc1)C(C)(C)C [Gefitinib-based PROTAC3]
% Drug Loading [1, 5]: 17.2% | % Encapsulation Efficiency [1, 5]: 83.0% | PdI [2]: 0.208 | Size [2]: 34.1 ± 6.5 nm | Zeta potential [2]: 3.39 ± 14.2 mV

SMILES: CC(=O)O[C@H]1C(=O)[C@@]2(C)[C@H]([C@H](OC(=O)c3ccccc3)[C@]3(O)C[C@H](OC(=O)[C@H](O)[C@@H](NC(=O)c4ccccc4)c4ccccc4)C(C)=C1C3(C)C)[C@]1(OC(C)=O)CO[C@@H]1C[C@@H]2O [PTX, Paclitaxel]
critical water content of PEG-water mixture above which PTX precipitates [3]: ~50.0 wt. %

encapsulation efficiency ([1]; 17AAG, 20 wt. % target loading, 1 mg/mL, PEG1000, 40° C.): 80.2±2.1% | time stable at room temperature [4]: at least 24 h
SMILES: C=CCNC1=C2C[C@@H](C)C[C@H](OC)[C@H](O)[C@@H](C)/C=C(\C)[C@H](OC(N)=O)[C@@H](OC)/C=C\C=C(/C)C(=O)NC(=CC1=O)C2=O [Sample 17AAG]
